We go through one compound from patent publication US20250032624A1, “SMALL MOLECULE DEGRADATION METHODS FOR TREATING ALS/FTD” (University of Florida Research Foundation, Incorporated, priority 2021, published 2025).

For data set [1], the system named is poly(GP). Kind of data set: poly(GP) and β-actin by electrochemiluminescence assay in brain of +/+PWR500 mice. It counts as in vivo, mouse. How it is done: A total of 20 age- and gender-matched mice (12 +/+PWR500 [5 Male and 7 Female] and 8 WT [4 Male and 4 Female]), ranging from 18-21 weeks old were used in therapeutic efficacy studies (Table 4). Mice were treated with a single bolus injection of 33 nmol of compound 2 formulated in 1% (v/v) DMSO/99% water, administered by an intracerebroventricular injection (ICV). Three weeks post injection, mice were euthanized, and tissue was harvested for study.
Postmortem brain tissue was harvested and sliced along the sagittal plane at the midline. The left hemisphere was frozen for RNA and protein analysis. Frozen brain tissue was homogenized in 300 μL Tris-EDTA buffer with a 1:5 w/v ratio of 2× protease and phosphatase inhibitors, as was done for RNA analysis of the tissue. Half of the homogenized tissue (150 μL) was mixed with 2× Lysis Buffer (50 mM Tris, pH 7.4, 250 mM NaCl, 2% (v/v) Triton X-100, and 4% (w/v) SDS) and sonicated at 1 second on/off intervals at 30% for a total of 15 seconds. Detergent from was removed using a Pierce™ Detergent Removal Spin Column 0.5 mL (Thermo Scientific) according to the manufacturer's protocol. Protein concentrations were then measured by BCA assay (Pierce Biotechnology) and poly(GP) was measured as described above for the electrochemical luminescent sandwich immunoassay.

Data set [2] deals with iPSC differentiated motor neurons (iPSNs). Description: Cell viability in iPSNs. It counts as cell-based, human. The settings on record: doses up to 1 μM. The method, then:
Patient-derived LCLs were seeded overnight in 96-well plates (˜10^4 cells/well) and treated with compounds for 96 hours. Cell viability was measured using the CellTiter-Fluor™ Cell Viability Assay (Promega) per the manufacturer's protocol. iPSC cell viability was measured by seeding cells in Matrigel-coated 6-well plates with Basal medium (iPSC maintenance described above). After overnight incubation, the medium was replaced with fresh medium containing compounds diluted in 0.1% DMSO. Cells were treated with compound for 96 hours. Cell viability was measured using the AlamarBlue™ Cell Viability Reagent (DAL1025, Thermo Fisher Scientific) per the manufacturer's protocol. iPSN cell viability was measured by […]

Data set [3] has as its system d(G4C2)8. Description: Affinity by MST, DNA control d(G4C2)8. It counts as binding. The conditions noted are these: d(G4C2)8, concentrations up to 20 μM. How it is done: Affinity measurements were performed by MST using a Monolith NT.115 system (NanoTemper Technologies) with 5′-Cy5-labeled r(G4C2)8 (SEQ ID NO: 1), 5′-Cy5-labeled d(G4C2)8 (SEQ ID NO: 1), and 5′-Cy5-labeled base pair control r(G2C2)4GAAA(G2C2)4 (SEQ ID NO: 49). All oligos were deprotected according to the manufacturer's recommended protocol. Samples were prepared as previously described^30. Briefly, RNA or DNA (5 nM) was folded in 1×MST Buffer (8 mM Na2HPO4, 185 mM NaCl, 1 mM EDTA) by heating at 95° C. for 5 minutes and slowly cooling to room temperature. Tween-20 was then added to a final concentration of 0.05% (v/v). Serial dilutions of compound in 1×MST Buffer containing 5 nM folded nucleic acid were then carried out to yield the desired compound concentrations. Samples were incubated for 90 minutes at room temperature and then loaded into premium capillaries (NanoTemper Technologies). The following parameters were used on the Monolith NT.115 system: 10% LED, 20-80% MST power, Laser-On time=30 s, Laser-Off time=5 seconds. Fluorescence was detected using excitation wavelengths of 605-645 nm and emission wavelengths of 680-685 nm. The resulting data were analyzed by thermophoresis analysis and fit using the quadratic binding equation in the MST analysis software (NanoTemper Technologies). The dissociation constant was determined using Equation 1. […]

Turning to `CCOC(=O)C1=C(Nc2ccccc2)S/C(=C\c2ccc(OCCOCCOCCOCCNC(=O)CCCOc3ccc4c(c3)c3cc5c(C(=O)N[C@H](C)CN(C)C)nccc5c(C)c3n4C)c(O)c2)C1=O` [ALS Compound Formula I], the β-actin abundance entry in data set [1] (house-keeping protein) is on record as “unaffected”. Moreover, the “reduction of poly(GP)” value in data set [1] (single ICV injection, 3 weeks) was approximately 40%. For the same compound, the toxicity result in data set [2] was “no significant toxicity”. Besides, the saturable binding entry in data set [3] is recorded as “No saturable binding”.
